pIC50: −log10 of the molar value.
Test system: Plasmodium berghei
Test: Luciferase/luciferin-expressing antifolate-resistant parasites were used to infect a culture of HepG2 cells that were pre-incubated with compounds. Infected hepatocytes emit light due to the luciferase reaction. Assay results are presented as the percent inhibition of light emission compared to control. […]
Type: functional
Settings: sporozoite; for IC90: read-out: LUCIFERASE INFECTION ASSAY - IC90

O=C(C1CC1)N1CCc2sccc2C1c1ccc(Cl)cc1 (stereo not given)
pIC50 (PBLUC_HILL_SLOPE 3.12, PBLUC_R_SQUARED 0.0785, read-out: LUCIFERASE INFECTION ASSAY - IC50): 5.01
IC90: > 10.4 µM

O=c1c2ccccc2sc2nc(C3CCCCC3)n(Cc3ccco3)c(=O)c12
pIC50 (PBLUC_HILL_SLOPE 3.17, PBLUC_R_SQUARED 0.712, read-out: LUCIFERASE INFECTION ASSAY - IC50): 5.34
IC90: > 8.41 µM

CSc1nncn1-c1ccccc1
pIC50 (PBLUC_HILL_SLOPE 3.17, PBLUC_R_SQUARED 0.315, read-out: LUCIFERASE INFECTION ASSAY - IC50): 5.11
IC90: 15.4 µM

N#Cc1ccc(-c2cnc3cnc(-c4cccs4)cn23)cc1
pIC50 (PBLUC_HILL_SLOPE 3.09, PBLUC_R_SQUARED 0.489, read-out: LUCIFERASE INFECTION ASSAY - IC50): 5.35
IC90: 9.18 µM

NC1=C(c2ccccc2)C(=O)c2ccccc21
pIC50 (PBLUC_HILL_SLOPE 3.17, PBLUC_R_SQUARED 0.165, read-out: LUCIFERASE INFECTION ASSAY - IC50): < 4.83
IC90: > 14.9 µM

Cc1nn(Cc2ccccc2Cl)c(Cl)c1C(=O)OC(C(=O)c1c[nH]c2ccccc12)c1ccccc1 (stereo not given)
pIC50 (PBLUC_HILL_SLOPE 3.17, PBLUC_R_SQUARED 0.115, read-out: LUCIFERASE INFECTION ASSAY - IC50): 5.20
IC90: > 10 µM

COC(=O)C1=C(C)NC(C)=C(C(=O)OC)C1c1cc(NC(=O)c2cccc(OC(F)F)c2)ccc1OC(F)F
pIC50 (PBLUC_HILL_SLOPE 3.17, PBLUC_R_SQUARED 0.755, read-out: LUCIFERASE INFECTION ASSAY - IC50): 5.35
IC90: 8.9 µM

Cc1cc(C)n(-c2nc(-c3ccccc3)cc(N3CCCC3)n2)n1
pIC50 (PBLUC_HILL_SLOPE 3.13, PBLUC_R_SQUARED 0.498, read-out: LUCIFERASE INFECTION ASSAY - IC50): 5.38
IC90: 8.47 µM

Cc1ccc(C)c(Nc2sc(-c3cc(=O)oc4c(C)c(C)ccc34)c(N)c2-c2nc3ccccc3s2)c1
pIC50 (PBLUC_HILL_SLOPE 3.07, PBLUC_R_SQUARED 0.45, read-out: LUCIFERASE INFECTION ASSAY - IC50): 5.34
IC90: 9.38 µM

CCCn1c(-c2ccc(OC)cc2)nc2c(c(=O)c3ccccc3n2C)c1=O
pIC50 (PBLUC_HILL_SLOPE 3.15, PBLUC_R_SQUARED 0.522, read-out: LUCIFERASE INFECTION ASSAY - IC50): 5.45
IC90: 7.12 µM

COCCCN1C(=O)N(Cc2ccc3ccccc3c2)C(=O)C12CCN(Cc1ccc(C)cc1)CC2
pIC50 (PBLUC_HILL_SLOPE 3.14, PBLUC_R_SQUARED 0.039, read-out: LUCIFERASE INFECTION ASSAY - IC50): 5.40
IC90: > 6.8 µM

Cc1cc(C)n2nc(SCC(=O)c3c(-c4ccccc4)[nH]c4ccccc34)nc2n1
pIC50 (PBLUC_HILL_SLOPE 3.17, 7.12, PBLUC_R_SQUARED 0.979, 0.666, read-out: LUCIFERASE INFECTION ASSAY - IC50): 5.33
IC90: 5.12 µM

C=CCNC(=O)C(C)Sc1nnc(-c2ccc(C)cc2)c(-c2ccc(C)cc2)n1 (stereo not given)
pIC50 (PBLUC_HILL_SLOPE 3.18, 2.13, PBLUC_R_SQUARED 0.929, 0.663, read-out: LUCIFERASE INFECTION ASSAY - IC50): 6.09
IC90: 2.06 µM

COc1ccc(-c2cnc3cnc(-c4cnn(C)c4)cn23)cn1
pIC50 (PBLUC_HILL_SLOPE 3.07, PBLUC_R_SQUARED 0.552, read-out: LUCIFERASE INFECTION ASSAY - IC50): 5.19
IC90: > 10.8 µM

CSc1ccc(-c2nccc3n[nH]c(C4CC4)c23)cc1
pIC50 (PBLUC_HILL_SLOPE 3.07, PBLUC_R_SQUARED 0.601, read-out: LUCIFERASE INFECTION ASSAY - IC50): 5.25
IC90: > 10 µM

Cn1c(Nc2ccccc2)nc2cnc(-c3ccc(F)c(Cl)c3)cc21
pIC50 (PBLUC_HILL_SLOPE 3.09, PBLUC_R_SQUARED 0.397, read-out: LUCIFERASE INFECTION ASSAY - IC50): 5.13
IC90: > 10 µM

CN(C)c1ccc(CNCC2(c3ccnc(-c4cccc(N(C)C)c4)c3)CC2)cc1
pIC50 (PBLUC_HILL_SLOPE 3.17, PBLUC_R_SQUARED 0.141, read-out: LUCIFERASE INFECTION ASSAY - IC50): 5.02
IC90: > 10 µM

O=C(CN1CCN(c2cccc(Cl)c2)CC1)Nc1cc(C2CC2)nn1-c1ccccc1
pIC50 (PBLUC_HILL_SLOPE 3.16, PBLUC_R_SQUARED 0.0582, read-out: LUCIFERASE INFECTION ASSAY - IC50): 5.16
IC90: > 10 µM

O=C(Nc1ccc(Oc2ccnc3cc(Cl)ccc23)cc1)c1ccco1
pIC50 (PBLUC_HILL_SLOPE 3.16, PBLUC_R_SQUARED 0.555, read-out: LUCIFERASE INFECTION ASSAY - IC50): 5.83
IC90: 2.99 µM

Cc1cccc(-c2nn(-c3ccccc3)cc2/C=C/C(=O)c2c(C)[nH]c(=O)[nH]c2=O)c1
pIC50 (PBLUC_HILL_SLOPE 3.1, PBLUC_R_SQUARED 0.412, read-out: LUCIFERASE INFECTION ASSAY - IC50): 5.23
IC90: > 10 µM

CC(=O)Nc1cccc(-c2cn3c(-c4ccc(Cl)cc4)cnc3cn2)c1
pIC50 (PBLUC_HILL_SLOPE 3.14, PBLUC_R_SQUARED 0.81, read-out: LUCIFERASE INFECTION ASSAY - IC50): 5.74
IC90: 3.69 µM

C=CCc1c(C)[nH]c2c(-c3ccccc3)cnn2c1=O
pIC50 (PBLUC_HILL_SLOPE 3.12, PBLUC_R_SQUARED 0.621, read-out: LUCIFERASE INFECTION ASSAY - IC50): 5.22
IC90: 12.1 µM

Cc1c(Sc2ccc(Cl)cc2)c2ccccn2c1C(=O)c1cccs1
pIC50 (PBLUC_HILL_SLOPE 3.16, PBLUC_R_SQUARED 0.487, read-out: LUCIFERASE INFECTION ASSAY - IC50): 5.20
IC90: > 10 µM

OCCN1N=C2c3cc(Cl)ccc3SCC2C1c1ccc(Cl)cc1 (stereo not given)
pIC50 (PBLUC_HILL_SLOPE 3.12, PBLUC_R_SQUARED 0.594, read-out: LUCIFERASE INFECTION ASSAY - IC50): 5.15
IC90: > 8.7 µM

Cc1ccc(-n2nnnc2COc2cc(C)ccc2C(C)C)c(C)c1
pIC50 (PBLUC_HILL_SLOPE 3.14, PBLUC_R_SQUARED 0.65, read-out: LUCIFERASE INFECTION ASSAY - IC50): 5.18
IC90: > 9.81 µM

CCCc1ccc(C(=O)/C(C#N)=c2\s/c(=C\c3cccs3)c(=O)n2-c2cc(C)ccc2C)cc1
pIC50 (PBLUC_HILL_SLOPE 3.09, PBLUC_R_SQUARED 0.669, read-out: LUCIFERASE INFECTION ASSAY - IC50): 5.19
IC90: > 10 µM

O=c1nc(-c2ccc(Cl)cc2)oc2ccccc12
pIC50 (PBLUC_HILL_SLOPE 3.1, PBLUC_R_SQUARED 0.539, read-out: LUCIFERASE INFECTION ASSAY - IC50): 5.27
IC90: 10.8 µM

FC(F)(F)c1cc(NCc2ccccc2C(F)(F)F)nc(-c2ccccn2)n1
pIC50 (PBLUC_HILL_SLOPE 3.13, PBLUC_R_SQUARED 0.711, read-out: LUCIFERASE INFECTION ASSAY - IC50): 5.45
IC90: 7.12 µM

Cc1nn(C)c2nc(-c3cccs3)cc(C(=O)Nc3ccccc3C(=O)NCC3CCCO3)c12 (stereo not given)
pIC50 (PBLUC_HILL_SLOPE 3.11, PBLUC_R_SQUARED 0.411, read-out: LUCIFERASE INFECTION ASSAY - IC50): 5.29
IC90: > 10 µM

O=C1Nc2ccc(Cl)cc2/C1=C/c1cn(Cc2ccccc2)nc1-c1cccnc1
pIC50 (PBLUC_HILL_SLOPE 3.18, PBLUC_R_SQUARED 0.696, read-out: LUCIFERASE INFECTION ASSAY - IC50): 5.25
IC90: > 10 µM

Cc1ccc(CC(=O)NCc2ccc(C#N)cc2)cc1
pIC50 (PBLUC_HILL_SLOPE 3.17, PBLUC_R_SQUARED 0.517, read-out: LUCIFERASE INFECTION ASSAY - IC50): 5.37
IC90: 8.45 µM

CC(C)(C)c1ccc(-n2c(SCc3ccc(Cl)cc3)nnc2-c2ccccc2Cl)cc1
pIC50 (PBLUC_HILL_SLOPE 3.18, PBLUC_R_SQUARED 0.744, read-out: LUCIFERASE INFECTION ASSAY - IC50): < 5.15
IC90: > 7.04 µM

CC(C)Oc1ccc(Nc2cc3c(cn2)nc(NCc2ccccc2)n3C)cc1
pIC50 (PBLUC_HILL_SLOPE 3.16, PBLUC_R_SQUARED 0.219, read-out: LUCIFERASE INFECTION ASSAY - IC50): 5.24
IC90: > 10 µM

CC(=O)NCCCc1ccc(C(=O)COC(=O)c2ccccc2-n2cnnn2)cc1
pIC50 (PBLUC_HILL_SLOPE 3.15, PBLUC_R_SQUARED 0.801, read-out: LUCIFERASE INFECTION ASSAY - IC50): 5.90
IC90: 2.51 µM

CCN(CC)c1ccc(/C=N/NC(=S)NC(C)C)c(O)c1
pIC50 (PBLUC_HILL_SLOPE 3.12, PBLUC_R_SQUARED 0.566, read-out: LUCIFERASE INFECTION ASSAY - IC50): 5.14
IC90: > 10 µM

CC1=NN(c2ccccc2)C(=O)/C1=C\c1c(C)nn(-c2ccccc2)c1Sc1nc2ccccc2s1
pIC50 (PBLUC_HILL_SLOPE 3.11, PBLUC_R_SQUARED 0.577, read-out: LUCIFERASE INFECTION ASSAY - IC50): 5.18
IC90: > 10 µM

COc1ccc(CCC(=O)NNC(=O)c2ccc3ccccc3n2)cc1Br
pIC50 (PBLUC_HILL_SLOPE 3.11, PBLUC_R_SQUARED 0.471, read-out: LUCIFERASE INFECTION ASSAY - IC50): 5.55
IC90: 5.65 µM

FC(F)(F)c1cc(N/N=C2/CCSc3sccc32)cc(C(F)(F)F)c1
pIC50 (PBLUC_HILL_SLOPE 3.14, PBLUC_R_SQUARED 0.463, read-out: LUCIFERASE INFECTION ASSAY - IC50): 5.38
IC90: > 8.33 µM

O=C(Nc1nc2ccccc2[nH]1)c1cn(Cc2ccccc2)nc1-c1cccnc1
pIC50 (PBLUC_HILL_SLOPE 3.18, PBLUC_R_SQUARED 0.533, read-out: LUCIFERASE INFECTION ASSAY - IC50): 5.15
IC90: > 10 µM

Cc1nn(C(=O)c2c(Cl)cccc2Cl)c(C)c1Cc1c(Cl)cccc1Cl
pIC50 (PBLUC_HILL_SLOPE 3.14, PBLUC_R_SQUARED 0.492, read-out: LUCIFERASE INFECTION ASSAY - IC50): 5.28
IC90: > 7.71 µM

From ChEMBL document CHEMBL4483862, “Open-source discovery of chemical leads for next-generation chemoprotective antimalarials” (2018)
